Source: US20240262844A1, “PYRIDINIUM SALTS AND METHODS OF USE” (UNIVERSITY OF WYOMING, priority 2023, published 2024)
Where “and” joins values, the source holds several entries; their conditions need not be identical. Equal entries are not always repeated. Structures can show the parent of a compound that is named as a salt.

Assays:
[1] = target: T1, lysozyme (14.3 kDa) (Gallus gallus, UniProt P00698); test: Photochemical labeling of lysozyme (LC/MS); type: biochemical, chicken; details: for irradiation time to complete reactivity: lysozyme labeling
T1 construct: Lysozyme (from chicken egg white, >40,000 units/mg of protein); purchased Sigma Aldrich; host or cells: chicken egg white
T1 sequence (P00698 19-147): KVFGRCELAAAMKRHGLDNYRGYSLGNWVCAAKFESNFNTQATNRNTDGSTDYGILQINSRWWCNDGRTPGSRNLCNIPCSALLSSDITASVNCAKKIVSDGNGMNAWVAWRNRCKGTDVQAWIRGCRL
Protocol: General Procedure B: Photochemical Irradiation of Peptides and Proteins: To a 2 mL Pyrex LC/MS vial (Thermo model #03-391-39) were sequentially added solutions containing the desired biomolecule, glutathione (GSH), pyridinium salt, and ammonium acetate (NH4OAc). The resulting solution was diluted to a final volume of 500 μL and then sparged using nitrogen for a minimum of 30 minutes prior to irradiation. The actively sparging solution was then placed in an EvoluChem™ PhotoRedOx Box photoreactor that was equipped with a Kessil, PR160 427 nm LED Lamp and was then irradiated (100% lamp intensity) for the designated time at room temperature while maintaining active sparging. The resultant reaction mixture was then analyzed directly by LC/MS. Analysis of labeling outcomes using LC/MS was performed either by extracted ion chromatogram intensities (method A) or by integrating the area under the peaks associated with peptide content (method B). These values were totaled, and estimated percentages were assigned according to relative intensities of peaks or ion counts.
Labeling of Lysozyme with Pyridinium Salt 2a (Lysozyme-2a Conjugate). Labeling of lysozyme (14.3 kDa) with the pyridinium salt 2a was performed by following general procedure B using the following solutions: lysozyme (27 μL, 182 μM, 10 μM final concentration), pyridinium salt 2a (200 μL, 500 μM, 200 μM final concentration), NH4+OAc (100 μL, 100 mM, pH=6.9, 20 mM final concentration), glutathione (15 μL, 10 mM, 300 μM final concentration), and water (158 μL) with a 100% intensity irradiation time of 60 minutes. The reaction mixture was analyzed directly by LC/MS using method A and was estimated to have proceeded in >95% conversion and a 10.9:1 mono:di labeled ratio and 10% glutathionylation of all unlabeled and labeled protein content was observed.
Labeling of Lysozyme with Pyridinium Salt 2b (Lysozyme-2b Conjugate). Labeling of lysozyme (14.3 kDa) with the pyridinium salt 2b was performed by following general procedure B using the following solutions: lysozyme (19 μL, 262 μM, 10 μM final concentration), 2b (181 μL, 554 μM, 200 μM final concentration), NH4OAc (50 μL, 200 mM, pH=6.9, 20 mM final concentration), glutathione (50 μL, 3 mM, 300 μM final concentration), and water (200 μL) with a 100% intensity irradiation time of 10 minutes. The reaction mixture was analyzed directly by LC/MS using method A and was estimated to have proceeded with 83% conversion. Partial oxidation at biotin obfuscated estimation of both oxidation and glutathionylation. Lysozyme-2b conjugate (retention time (Tr)=2.80-5.17 min).
Labeling of Lysozyme with Pyridinium Salt 2c (Lysozyme-2c Conjugate). Labeling of lysozyme (14.3 kDa) with the pyridinium salt 2c was performed by following general procedure B using the following solutions: lysozyme (19 μL, 262 μM, 10 μM final concentration), pyridinium salt 2c(367 μL, 680 μM, 500 μM final concentration), NH4OAc (50 μL, 200 mM, pH=6.9, 20 mM final concentration), glutathione (50 μL, 3 mM, 300 μM final concentration), and water (14 μL) with a 100% intensity irradiation time of 10 minutes. The reaction mixture was analyzed directly by LC/MS using method A and was estimated to have proceeded with 85% conversion and a 3.7:1 mono:di labeled ratio and 10% glutathionylation of all protein content was observed. Lysozyme-2c conjugate (retention time (Tr)=3.11-5.07 min).
Labeling of Lysozyme with Pyridinium Salt 2d (Lysozyme-2d Conjugate). Labeling of lysozyme (14.3 kDa) with the pyridinium salt 2d was performed by following general procedure B using the following solutions: Lysozyme (16.8 μL, 0.297 mM solution in H2O, final concentration […]), pyridinium salt 2d (91.8 μL, 1.09 mM solution in CH3CN/H2O (2:3), final concentration 200 μM), NH4OAc (50 μL, 200 mM in H2O, final concentration 20 mM, pH 6.9), glutathione (15 μL, 10 mMsolution in H2O, final concentration 300 μM), and water (326.4 μL) with a 100% intensity irradiation time of 20 minutes. […]

[2] = Fluorescence lifetime and emission measurements; type: physicochemical
Protocol: The emission spectra were generated by excitation of a 10 μM solution of either pyridinium salt 2a or pyridinium salt 2b in H2O. Analyses were performed at 375 nm excitation with an emission slit width of 5 nm and an excitation slit width of 5 nm. The emission wavelength was gathered from 400 nm to 600 nm.
FIGS. 9A-9D show fluorescence decay spectra of pyridinium salts 2a and 2b in selected solvents according to at least one embodiment of the present disclosure. Specifically, FIG. 9A is a fluorescence decay spectrum of pyridinium salt 2a in 1,2-dichloroethane, FIG. 9B is a fluorescence decay spectrum of pyridinium salt 2a in CH3CN, FIG. 9C is a fluorescence decay spectrum of pyridinium salt 2a in H2O, and FIG. 9D is a fluorescence decay spectrum of pyridinium salt 2b in H2O. The fluorescent decay spectra were generated with a 1-10 μM solution of pyridinium salt (10 μM for H2O and 1 μM for other solvents) using a GG420 long pass filter and a 375 nm excitation wavelength. The instrument response factor was measured using a highly diluted solution of LUDOX AS-30 colloidal silica in water and a ND1.0 filter. The concentration of LUDOX and the emission slit width were adjusted until the intensity of the instrument response function (IRF) was similar to the fluorescent decay intensity. The procedure given in the EasyLife X User's Manual was followed.

[3] = Stern-Volmer fluorescence quenching analysis; type: physicochemical; details: 100 μM pyridinium salt in 20 mM NH4OAc pH 6.9, increasing NATA, 375 nm excitation
Protocol: FIG. 7 is a Stern-Volmer plot of florescence quenching of pyridinium salt 2a with a small molecule tryptophan analog N-acetyltryptophanamide (NATA) according to at least one embodiment of the present disclosure. The Stern-Volmer plot was generated by excitation of a 100 μM solution of pyridinium salt 2a in 20 mM NH4OAc pH 6.9 in the presence of increasing concentrations of NATA. Analyses were performed at 375 nm excitation. The calculated Kq, assuming 11 (0.2548 ns) quenching, was determined to be about 1.019E5 M^−1s^−1. The calculated Kq, assuming τ2 (3.399 ns) quenching, was determined to be about 7.638E3 M^−1s^−1.

| relative fluorescence quantum yield (ΦF1) pyridinium salt 2b: pyridinium salt 2a ([2]; 10 μM in H2O, 375 nm excitation) | glutathionylation of all unlabeled and labeled protein content ([1]; 200 μM pyridinium salt 2d, 300 μM glutathione, 20 minutes irradiation) | Structure (SMILES) | irradiation time to complete reactivity [1] | fluorescence lifetime τ1 ([2]; water, 375 nm excitation) | fluorescence lifetime τ2 ([2]; water, 375 nm excitation) | calculated Kq, assuming τ1 (0.2548 ns) quenching [3] | calculated Kq, assuming τ2 (3.399 ns) quenching [3] | conversion ([1]; 10 μM lysozyme, 200 μM pyridinium salt 2a, 300 μM glutathione, 20 mM NH4OAc pH 6.9, 427 nm, 60 minutes) | glutathionylation of all unlabeled and labeled protein content ([1]; 200 μM pyridinium salt 2a, 300 μM glutathione, 60 minutes irradiation) | fluorescence lifetime τ1 ([2]; 1,2-dichloroethane, 375 nm excitation) | fluorescence lifetime τ1 ([2]; acetonitrile, 375 nm excitation) | diffusion distance of the excited state (2a*) ([2]; aqueous systems) |
| --- | --- | --- | --- | --- | --- | --- | --- | --- | --- | --- | --- | --- |
| 3.3 |  | COc1ccc2cc(-c3cc(C)[n+](N(C)C(=O)OCCCCC[C@H]4SC[C@H]5NC(=O)N[C@H]54)c(C)c3)ccc2c1 (stereo in doubt) [Pyridinium salt 2b, 4-(6-methoxynaphthalen-2-yl)-2,6-dimethyl-1-(methyl(((5-((3aR,4R,6aS)-2-oxohexahydro-1H-thieno[3,4-d]imidazol-4-yl)pentyl)oxy)carbonyl)amino)pyridin-1-ium tetrafluoroborate] | less than 10 min | 0.5 ns | 2.8 ns |  |  |  |  |  |  |  |
|  |  | COC(=O)N(C)[n+]1c(C)cc(-c2ccc3cc(OC)ccc3c2)cc1C [Pyridinium salt 2a, 1-((methoxycarbonyl)(methyl)amino)-4-(6-methoxynapthalen-2-yl)-2,6-dimethylpyridin-1-ium tetrafluoroborate] | about 60 min | 0.2548 ns and 0.3 ns | 3.399 ns and 3.4 ns | about 1.019E5 M^−1s^−1 | about 7.638E3 M^−1s^−1 | > 95% and 94% | 10% | 4.1 ns | 3.3 ns | ≤ 30 Å |
|  | 3% and 2% | COc1ccc2cc(-c3cc(C)[n+](N(C)C(=O)OCCCCCCN=[N+]=[N-])c(C)c3)ccc2c1 [Pyridinium salt 2d, 1-((((6-azidohexyl)oxy)carbonyl)(methyl)amino)-4-(6-methoxynaphthalen-2-yl)-2,6-dimethylpyridin-1-ium tetrafluoroborate] |  |  |  |  |  |  |  |  |  |  |
